Blank lines part the entries; values can stand above or below the molecule they belong to.
Legend:
[1] = biological target: L-plastin H5 peptide H5 (Homo sapiens) (UniProt P13796); conditions: cited from earlier work
FimA-EF = biological target: T1, FimA-EF (Dictyostelium discoideum, UniProt P54680); test: 1H, […]-HSQC NMR titration (chemical shift changes); format: binding; conditions: 25 °C, pH 7.0; Ca2+-bound; site of switch helix H5
T1 construct: EF-hand headpiece domain with switch helix H5, residues 1-93; pET15b, N-terminal 6His-tag with TEV site, tag cleaved; E. coli BL21(DE3)
T1 sequence (P54680 1-93): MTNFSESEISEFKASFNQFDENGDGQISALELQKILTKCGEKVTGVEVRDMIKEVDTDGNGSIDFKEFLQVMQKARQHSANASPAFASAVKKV

FimA-EF-N81ter = biological target: T2, FimA-EF-N81ter (Dictyostelium discoideum, UniProt P54680); test: 1H, […]-HSQC NMR titration; format: binding
T2 construct: EF-hand headpiece domain truncated before switch helix H5 (N81ter), residues 1-80; N-terminal 6His-tag with TEV site, tag cleaved; E. coli BL21(DE3)
T2 sequence (P54680 1-80): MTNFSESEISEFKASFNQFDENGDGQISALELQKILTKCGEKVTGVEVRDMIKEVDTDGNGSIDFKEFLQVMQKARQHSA

[2] = biological target: T3, FimA-EF-N81ter (EF-hand domain of the Dictyostelium discoideum FimA headpiece, residues 1-80, lacking the H5 … (Dictyostelium discoideum, UniProt P54680 1-80)); test: NMR titration; 15N-labelled FimA-EF-N81ter titrated with the H5 peptide, 1H,15N-HSQC, chemical shift changes fitted, fast exchange; 25 °C, 100 mM KCl, 20 mM Bis-Tris pH 7.0, 10 mM DTT; conditions: both partners purified
T3 construct: FimA (fimbrin) of Dictyostelium discoideum, UniProtKB P54680, headpiece truncated by a stop codon at N81: residues 1-80, omits the entire H5 region; Made by site-directed mutagenesis of the synthetic FimA 1-93 gene in pET15b (NdeI/XhoI) with an N-terminal 6His-tag and a TEV site; The methods say the last 12 amino acids are deleted, but 1-80 of 1-93 removes 13; also called …
T3 sequence (looked up): T2 sequence (P54680 1-80)

Molecule: L-plastin EF-hand domain (from UniProt P13796)
Kd [1]: 3.5 µM

Kd (FimA-EF-N81ter): 1.5 µM
Molecule: CN1CCN(CCCN2c3ccccc3Sc3ccc(C(F)(F)F)cc32)CC1 [TFP]
1H,15N-HSQC NMR titration (chemical shift changes) (FimA-EF): Both TFP and W7 caused significant chemical shift changes in the HSQC spectrum of FimA-EF

Kd (FimA-EF-N81ter): 3.8 µM
Molecule: NCCCCCCNS(=O)(=O)c1cccc2c(Cl)cccc12 [W7]
1H,15N-HSQC NMR titration (chemical shift changes) (FimA-EF): Both TFP and W7 caused significant chemical shift changes in the HSQC spectrum of FimA-EF

B1: H5 peptide (14-residue synthetic peptide encompassing the H5 / putative regulatory switch-helix region of FimA) (peptide)
peptide: Ac-SANASPAFASAVKK-NH2
notes: Stretch of FimA of Dictyostelium discoideum (UniProtKB P54680) encompassing the putative regulatory domain (H5); Limits worked out from the printed positions N81, P84 and F86; also called synthetic H5 peptide; source: synthetic peptide, obtained from Genscript (purity over 95%)
Kd [2]: 300 µM

Reference: paper PMC10533516, “The Dictyostelium discoideum FimA protein, unlike yeast and plant fimbrins, is regulated by calcium similar to mammalian plastins” (Scientific Reports, 2023)
